Source: ChEMBL document CHEMBL5518248, “Design, Synthesis, and Biological Evaluation of Novel Arylomycins against Multidrug-Resistant Gram-Negative Bacteria” (J Med Chem, 2024)

How the values were obtained:
Type in all cases: functional
Details in all cases: time 18-20 hrs
[1] = test system: Klebsiella pneumoniae; assay: Antibacterial activity against Klebsiella pneumoniae 15-5 assessed as inhibition of bacterial growth measured after 18 to 20 hrs by broth microdilution method
[2] = test system: Pseudomonas aeruginosa; assay: Antibacterial activity against Pseudomonas aeruginosa 19-5 assessed as inhibition of bacterial growth measured after 18 to 20 hrs by broth microdilution method
[3] = test system: Escherichia coli; assay: Antibacterial activity against Escherichia coli 14-2 assessed as inhibition of bacterial growth measured after 18 to 20 hrs by broth microdilution method
[4] = test system: Klebsiella pneumoniae; assay: Antibacterial activity against Klebsiella pneumoniae 15-1 assessed as inhibition of bacterial growth measured after 18 to 20 hrs by broth microdilution method
[5] = test system: Escherichia coli; assay: Antibacterial activity against Escherichia coli ATCC 35218 assessed as inhibition of bacterial growth measured after 18 to 20 hrs by broth microdilution method
[6] = test system: Escherichia coli; assay: Antibacterial activity against Escherichia coli 14-4 assessed as inhibition of bacterial growth measured after 18 to 20 hrs by broth microdilution method
[7] = test system: Pseudomonas aeruginosa; assay: Antibacterial activity against Pseudomonas aeruginosa 17-1 assessed as inhibition of bacterial growth measured after 18 to 20 hrs by broth microdilution method
[8] = test system: Klebsiella pneumoniae; assay: Antibacterial activity against Klebsiella pneumoniae 15-4 assessed as inhibition of bacterial growth measured after 18 to 20 hrs by broth microdilution method
[9] = test system: Acinetobacter baumannii; assay: Antibacterial activity against Acinetobacter baumannii 17-2 assessed as inhibition of bacterial growth measured after 18 to 20 hrs by broth microdilution method
[10] = test system: Acinetobacter baumannii; assay: Antibacterial activity against Acinetobacter baumannii 17-8 assessed as inhibition of bacterial growth measured after 18 to 20 hrs by broth microdilution method

SMILES	MIC [1] [µg/mL]	MIC [2] [µg/mL]	MIC [3] [µg/mL]	MIC [4] [µg/mL]	MIC [5] [µg/mL]	MIC [6] [µg/mL]	MIC [7] [µg/mL]	MIC [8] [µg/mL]	MIC [9] [µg/mL]	MIC [10] [µg/mL]
Cc1nc(-c2ccc(C(C)(C)C)cc2)ncc1C(=O)N[C@@H](CCN)C(=O)N(C)[C@@H]1C(=O)N[C@@H](C)C(=O)N[C@H](C(=O)CC#N)Cc2ccc(OCCN)c(c2)-c2cc1ccc2OCCN.O=C(O)C(F)(F)F.O=C(O)C(F)(F)F.O=C(O)C(F)(F)F.O=C(O)C(F)(F)F	16	> 64	8	16	4	8	> 64	16	16	16
Cc1nc(-c2ccc(CSSC(C)C)cc2)ncc1C(=O)N[C@@H](CCN)C(=O)N(C)[C@@H]1C(=O)N[C@@H](C)C(=O)N[C@H](C(=O)NCC#N)Cc2ccc(OCCN)c(c2)-c2cc1ccc2OCCN.O=C(O)C(F)(F)F.O=C(O)C(F)(F)F.O=C(O)C(F)(F)F.O=C(O)C(F)(F)F	0.06	4	0.06	0.06	≤ 0.03	0.06	2	0.125	0.5	0.125
Cc1nc(-c2ccc(C(C)(C)C)cc2)ncc1C(=O)N[C@@H](CCN)C(=O)N(C)[C@@H]1C(=O)N[C@@H](C)C(=O)N[C@H](NC(=O)NCC#N)Cc2ccc(OCCN)c(c2)-c2cc1ccc2OCCN.O=C(O)C(F)(F)F.O=C(O)C(F)(F)F.O=C(O)C(F)(F)F.O=C(O)C(F)(F)F	> 64	> 64	64	> 64	32	64	> 64	> 64	> 64	> 64
Cc1nc(-c2ccc(CSSCC[Si](C)(C)C)cc2)ncc1C(=O)N[C@@H](CCN)C(=O)N(C)[C@@H]1C(=O)N[C@@H](C)C(=O)N[C@H](C(=O)NCC#N)Cc2ccc(OCCN)c(c2)-c2cc1ccc2OCCN.O=C(O)C(F)(F)F.O=C(O)C(F)(F)F.O=C(O)C(F)(F)F.O=C(O)C(F)(F)F	1	4	0.5	1	0.25	1	4	1	1	1
CCSSCc1ccc(-c2ncc(C(=O)N[C@@H](CCN)C(=O)N(C)[C@@H]3C(=O)N[C@@H](C)C(=O)N[C@H](C(=O)NCC#N)Cc4ccc(OCCN)c(c4)-c4cc3ccc4OCCN)c(C)n2)cc1.O=C(O)C(F)(F)F.O=C(O)C(F)(F)F.O=C(O)C(F)(F)F.O=C(O)C(F)(F)F	0.125	16	0.06	0.06	≤ 0.03	≤ 0.03	8	0.125	1	0.5
Cc1nc(-c2ccc(C(C)(C)C)cc2)ncc1C(=O)N[C@@H](CCN)C(=O)N(C)[C@@H]1C(=O)N[C@@H](C)C(=O)N[C@H](NC(=O)CC#N)Cc2ccc(OCCN)c(c2)-c2cc1ccc2OCCN.O=C(O)C(F)(F)F.O=C(O)C(F)(F)F.O=C(O)C(F)(F)F.O=C(O)C(F)(F)F	64	> 64	64	32	64	64	> 64	64	> 64	> 64
Cc1nc(-c2ccc(C(C)(C)C)cc2)ncc1C(=O)N[C@@H](CCN)C(=O)N(C)[C@@H]1C(=O)N[C@@H](C)C(=O)N[C@H](C(=O)NCP(=O)(O)O)Cc2ccc(OCCN)c(c2)-c2cc1ccc2OCCN.Cl.Cl.Cl.Cl	0.25	64	1	0.5	0.25	0.25	64	0.5	8	4
CSSC1(c2ccc(-c3ncc(C(=O)N[C@@H](CCN)C(=O)N(C)[C@@H]4C(=O)N[C@@H](C)C(=O)N[C@H](C(=O)NCC#N)Cc5ccc(OCCN)c(c5)-c5cc4ccc5OCCN)c(C)n3)cc2)CCC1.O=C(O)C(F)(F)F.O=C(O)C(F)(F)F.O=C(O)C(F)(F)F.O=C(O)C(F)(F)F	0.125	2	0.125	0.06	≤ 0.03	0.06	16	0.125	0.5	0.25
Cc1nc(-c2ccc(SC(C)(C)C)cc2)ncc1C(=O)N[C@@H](CCN)C(=O)N(C)[C@@H]1C(=O)N[C@@H](C)C(=O)N[C@H](C(=O)NCC#N)Cc2ccc(OCCN)c(c2)-c2cc1ccc2OCCN.O=C(O)C(F)(F)F.O=C(O)C(F)(F)F.O=C(O)C(F)(F)F.O=C(O)C(F)(F)F	0.06	16	0.125	0.06	≤ 0.03	0.06	16	0.125	2	1
Cc1nc(-c2ccc(C3SCCS3)cc2)ncc1C(=O)N[C@@H](CCN)C(=O)N(C)[C@@H]1C(=O)N[C@@H](C)C(=O)N[C@H](C(=O)NCC#N)Cc2ccc(OCCN)c(c2)-c2cc1ccc2OCCN.O=C(O)C(F)(F)F.O=C(O)C(F)(F)F.O=C(O)C(F)(F)F.O=C(O)C(F)(F)F	0.25	64	0.125	0.25	0.06	0.125	32	1	8	2
CSSc1ccc(-c2ncc(C(=O)N[C@@H](CCN)C(=O)N(C)[C@@H]3C(=O)N[C@@H](C)C(=O)N[C@H](C(=O)NCC#N)Cc4ccc(OCCN)c(c4)-c4cc3ccc4OCCN)c(C)n2)cc1.O=C(O)C(F)(F)F.O=C(O)C(F)(F)F.O=C(O)C(F)(F)F.O=C(O)C(F)(F)F	1	16	0.5	0.5	0.25	0.5	16	1	4	2
C=CC(=O)N[C@@H]1Cc2ccc(OCCN)c(c2)-c2cc(ccc2OCCN)[C@H](N(C)C(=O)[C@H](CCN)NC(=O)c2cnc(-c3ccc(C(C)(C)C)cc3)nc2C)C(=O)N[C@@H](C)C(=O)N1.O=C(O)C(F)(F)F.O=C(O)C(F)(F)F.O=C(O)C(F)(F)F.O=C(O)C(F)(F)F	32	> 64	64	32	64	64	> 64	64	> 64	64
COCCSSCc1ccc(-c2ncc(C(=O)N[C@@H](CCN)C(=O)N(C)[C@@H]3C(=O)N[C@@H](C)C(=O)N[C@H](C(=O)NCC#N)Cc4ccc(OCCN)c(c4)-c4cc3ccc4OCCN)c(C)n2)cc1.O=C(O)C(F)(F)F.O=C(O)C(F)(F)F.O=C(O)C(F)(F)F.O=C(O)C(F)(F)F	1	> 64	0.5	1	0.25	0.5	> 64	2	8	2
Cc1nc(-c2ccc(C(C)(C)C)cc2)ncc1C(=O)N[C@@H](CCN)C(=O)N(C)[C@@H]1C(=O)N[C@@H](C)C(=O)N[C@H](C(=O)O)Cc2ccc(OCCN)c(c2)-c2cc1ccc2OCCN.O=C(O)C(F)(F)F.O=C(O)C(F)(F)F.O=C(O)C(F)(F)F.O=C(O)C(F)(F)F	0.125	> 64	0.125	0.06	0.06	0.5	> 64	0.25	8	1
Cc1nc(-c2ccc(C(C)(C)C)cc2)ncc1C(=O)N[C@@H](CCN)C(=O)N(C)[C@@H]1C(=O)N[C@@H](C)C(=O)N[C@H](C(=O)NN(C)CC#N)Cc2ccc(OCCN)c(c2)-c2cc1ccc2OCCN.Cl.Cl.Cl.Cl	16	> 64	16	8	4	4	> 64	16	> 64	64
CSC(=O)CNC(=O)[C@@H]1Cc2ccc(OCCN)c(c2)-c2cc(ccc2OCCN)[C@H](N(C)C(=O)[C@H](CCN)NC(=O)c2cnc(-c3ccc(C(C)(C)C)cc3)nc2C)C(=O)N[C@@H](C)C(=O)N1.O=C(O)C(F)(F)F.O=C(O)C(F)(F)F.O=C(O)C(F)(F)F.O=C(O)C(F)(F)F	0.5	64	4	0.25	0.5	1	64	1	64	16
Cc1nc(-c2ccc(C(C)(C)C)cc2)ncc1NC(=O)N[C@@H](CCN)C(=O)N(C)[C@@H]1C(=O)N[C@@H](C)C(=O)N[C@H](C(=O)NCC#N)Cc2ccc(OCCN)c(c2)-c2cc1ccc2OCCN.O=C(O)C(F)(F)F.O=C(O)C(F)(F)F.O=C(O)C(F)(F)F.O=C(O)C(F)(F)F	16	> 64	16	16	4	8	> 64	32	32	8
Cc1nc(-c2ccc(C(C)(C)C)cc2)ncc1CC(=O)N[C@@H](CCN)C(=O)N(C)[C@@H]1C(=O)N[C@@H](C)C(=O)N[C@H](C(=O)NCC#N)Cc2ccc(OCCN)c(c2)-c2cc1ccc2OCCN.O=C(O)C(F)(F)F.O=C(O)C(F)(F)F.O=C(O)C(F)(F)F.O=C(O)C(F)(F)F	> 64	> 64	16	> 64	16	16	> 64	> 64	64	8
